Data published in US20170107531A1, “ISOLATED NUCLEIC ACIDS AND QU[…] LOCI (QTL) FROM S. HA[…] METHODS OF USE THEREOF FOR […] BACTERIAL SPECK DISEASE IN TOMATO AND OTHER PLANTS” (Boyce Thompson Institute, priority 2015, published 2017).

Tests used:
[1] = tested on: Solyc02g072470 transcript abundance; assay: Solyc02g072470 transcript abundance in leaves after MAMP treatment (qRT-PCR), RG-PtoS; assay type: in vivo, tomato (Rio Grande RG-PtoS)
Protocol: (§1) Two lateral leaflets on the second leaf of 3-week old tomato plants were syringe-infiltrated with 1 uM FlgII-28 ([…]) (SEQ ID NO. 1) (Cal, et al., 2011) or 10 uM Csp22 ([…]) (SEQ ID NO. 2) (Felix and Boller, 2003) and harvested 6 hrs later. Tissue samples were immediately frozen in liquid nitrogen and kept at −80° C. until use. Six-week-old plants were inoculated with 10^5 colony-forming units (CFU)/mL P. syringae pv. tomato T1 by vacuum infiltration for the visual monitoring of disease symptoms and 10^4 CFU/mL for the measurement of bacterial populations. For each replicate, three leaf discs were collected and combined; each experiment involved replicates from three independent plants.
(§2) Leaf tissue was ground in liquid nitrogen and total RNA was extracted with TRIzol reagent following the manufacturer's instructions (Life Technologies, cat. #15596-018). The concentration of total RNA was determined with a Nanodrop spectrophotometer (Thermo Scientific Co.). RNA (lug) was treated with TURBO DNA-free™ Kit (Life Technologies, cat. AM1907M) and tested for DNA contamination by amplifying SlCBL1 (Solyc12g015870) for 25 cycles; no PCR product was detected. The RNA was then used for reverse transcription PCR (RT-PCR). […] 1 μl and 0.4 μl of cDNA templates were used for RT-PCR and quantitative-RT-PCR (qRT-PCR), respectively. […]

[2] = tested on: Solyc02g072470 transcript abundance; assay: Solyc02g072470 transcript abundance in leaves after MAMP treatment (qRT-PCR), LA2109; assay type: in vivo, Solanum habrochaites accession LA2109
Protocol: as §1, §2

[3] = tested on: reactive oxygen species (ROS) in LA2109; details: Veluchamy et al., 2014; cited from earlier work
[4] = tested on: reactive oxygen species (ROS) in LA2109; assay: Reactive oxygen species (ROS) elicitation by MAMP peptides, luminescence-based assay; assay type: cell-based, Solanum habrochaites accession LA2109; details: for PTI-eliciting activity of synthetic peptide: FIG. 2D, FIGS. 3C-E, also Cai et al., 2011; for ROS elicitation (relative light units): LA2109, FIG. 3C
Protocol: FIG. 3A-FIG. 3E. […] (FIG. 3A) Bacterial speck disease on leaves of LA2109 four days after inoculation with Pst19 or Pst19ΔavrPtoB. (FIG. 3B) Bacterial populations of Pst19 and Pst19ΔavrPtoB in leaves of LA2109. Error bars indicate standard deviation. Testing the possible response of LA2109 to FlgII-28, effector HopAO1, and coronatine. […] ROS was measured as relative light units using a luminescence-based assay. […] Strain NY-T1 was included as a virulent control. All strains were inoculated at 2×10^5 CFU/mL. (FIG. 3E) Coronatine (1.25 nM) was syringe-infiltrated into leaves of LA2109 and Moneymaker (red arrows). Leaves of LA2109 were not observably more sensitive to this phytotoxin.

[5] = 10 uM Csp22, 6 hours after treatment
[6] = 1 uM FlgII-28, 6 hours after treatment, vs 10 mM MgCl2 mock

## AVGTVKWFNAEKGFGFITPDDG (Csp22)
[1]; [5]
  Effect on Solyc02g072470 transcript abundance: no effect
[2]; [5]
  Effect on Solyc02g072470 transcript abundance: significantly induced
[3]
  ROS response to Csp22, LA2109 compared to RG-PtoS: higher ROS response

## ESTNILQRMRELAVQSRNDSNSATDREA (FlgII-28)
[1]; [6]
  Increase of Solyc02g072470 transcript abundance: 4 fold
[2]; [6]
  Increase of Solyc02g072470 transcript abundance: 1.5 fold

## FlgII-28 from DC3000: synthetic peptide of the FlgII-28 region of Pst strain DC3000 flagellin (SEQ ID NO: 77) (QTMAIKNANDGMSLAQTAEGALQESTNILQRMRELAVQSRNDSNSATDREALNKEFTAMS; FlgII-28 region)
[4]
  PTI-eliciting activity of synthetic peptide: fully active
  ROS elicitation (relative light units): same level

## FlgII-28 from NY-T1: FlgII-28 region of NY-T1 flagellin, phenylalanine at position 16 instead of serine (SEQ ID NO: 76) (QTMAIKNANDGMSLAQTAEGALQESTNILQRMRELAVQFRNDSNSSTDRDALNKEFTAMS; FlgII-28 region)
[4]
  ROS elicitation (relative light units): inactive

## FlgII-28 from T1: synthetic peptide of the FlgII-28 region of Pst strain T1 flagellin (SEQ ID NO: 75) (QTMAIKNANDGMSLAQTAEGALQESTNILQRMRELAVQSRNDSNSSTDRDALNKEFTAMS; FlgII-28 region)
[4]
  PTI-eliciting activity of synthetic peptide: fully active
  ROS elicitation (relative light units): same level
